In test [1] the test system is arachidonic acid induced aggregation of human platelets. The test can be described thus: Arachidonic acid induced aggregation of human platelets in vitro. Type of test: cell-based. The note with it: Platelet, read-out: % Inhibition of vehicle control. The source says:
The beneficial effects of combining one of the novel TXA2 antagonists of formula I defined hereinabove with a TXA2 synthetase inhibitor may be illustrated in vitro, for example by evaluating their effects in inhibiting arachidonic acid induced aggregation of human platelets, using standard procedures well known in the art. Thus, for example, the following results were obtained with the TXA2 antagonist described hereinafter in Ex. 2, 6 and 20 (Compound A) and the TXA2 synthetase inhibitor known as dazoxiben (Compound B): […]

For test [2], the system named is U46619 induced hypertension. The test can be described thus: Test (d): U46619 induced hypertension in anaesthetised male rats (Alderley Park strain). It is filed as in vivo, rat. The conditions noted are these: 1 hour after oral dose of 0.5 mg/kg. As to the method: (d) Male rats (Alderley Park strain) are anaesthetised with sodium pentobarbital and blood pressure is monitored at the carotid artery. The TXA2 mimetic agent U46619 is administered intravenously at 5 μg/kg via the jugular vein to produce 20-30 mm/Hg (2640-3970 pascal) increase in systolic blood pressure. The process is repeated twice to ensure adequacy of response. A test compound is then administered either intravenously (via the jugular vein) or orally (via a cannula) directly into the stomach and the animal challenged with U46619, five minutes after dosing with test compound and then successively every ten minutes until the hypertensive effect of U46619 is no longer blocked.

The test system of another test is thromboxane receptor. The test can be described thus: Test (a): rabbit or rat aortal strip, TXA2 antagonism (agonist TXA2 or U46619). It is filed as cell-based. The conditions noted are these: ±0.05. The source says: It is believed that TXA2 exerts its physiological action through the thromboxane receptor, at which receptor various other prostanoid contractile substances derived from arachidonic acid, such as prostaglandins H2, F2 alpha and prostaglandin D2, can exert contractile effects. There are two principal ways in which the effects of TXA2 (and also of prostaglandins H2, F2 alpha and/or D2) can be ameliorated. […] The second way is to administer a pharmacological agent which inhibits one or more of the enzymes involved in the production of TXA2 and in particular, which inhibits the enzyme known as thromboxane synthetase (TXA2 synthetase). Such an agent is said to be a TXA2 synthetase inhibitor.
As stated earlier, the novel compounds of formula I are antagonists of one or more of the actions of TXA2, for example certain of its actions on blood platelets, the vasculature and/or the lung.
(a) The rabbit aortal strip model devised by Piper and Vane (Nature, 1969, 223, 29-35) or the rat aortal strip model developed by Kennedy et alia (Prostaglandins, 1982, 24, 667-689), using as agonist a freshly prepared sample of TXA2, generated by addition of arachidonic acid (25 μg) to citrated, platelet rich rabbit plasma (250 μl) and allowing the mixture to aggregate fully over 90 seconds before use; alternatively the TXA2 mimetic agent known as U46619 (described by R. L. Jones et alia in "Chemistry, Biochemistry and Pharmacological Activity of Prostanoids" edited by S. M. Roberts and F. Scheinmann, at page 211; Pergamon Press, 1979) may be used as the agonist; and
Using the above test procedures (a)-(c), the following representative results have been obtained with the compounds of formula II wherein (i) X^1 is 2-chloro, (ii) X^1 is 2-cyano; or (iii) X^1 is 4-cyano, respectively: […]

Test [3] relates to U46619 induced bronchoconstriction. Nature of the test: Test (c): U46619 induced bronchoconstriction in Konzett-Rossler anaesthetised guinea-pig. Type of test: in vivo. The note with it: 2 hours after oral dosing at 0.05 mg/kg. The source says: (c) a bronchoconstriction test involving measuring the inhibition by a test compound of the bronchoconstriction induced in the Konzett-Rossler, anaesthetised guinea-pig model (as modified by Collier and James, Brit.J.Pharmacol., 1967, 30, 283-307) by intravenous administration of the TXA2 mimetic agent, U46619 and involving:
(i) obtaining a cumulative dose-response curve to U46619 induced bronchoconstriction by intravenous administration of constant volumes of increasing concentrations of U46619 (0.2-4 μg/kg) in physiological saline solution and expressing bronchoconstriction as the maximum of that theoretically obtainable with no air flow to the test animal;
(ii) generating a cumulative dose-response curve to U46619 induced bronchoconstriction at 30 minute intervals for 3 hours after oral dosing of test compound; and
(iii) calculating a dose-ratio for the test compound (that is the ratio of concentration of U46619 required to cause 50% bronchoconstriction in the presence and absence of test compound) indicating the potency of TXA2 antagonism.

For a further test, the system named is diamondback moths. The test can be described thus: Catches of diamondback moths (lures).

The term inhibition denotes the change of the read-out against control, counted positive when it falls. As a reminder, the pA2 is the negative logarithm of the molar antagonist concentration that doubles the agonist concentration needed for the same response. Higher therefore signals higher antagonist potency.

On to `O=C(O)CC/C=C\C[C@@H]1CO[C@H](c2ccccc2Cl)O[C@@H]1c1ccccc1O` (relative stereo) [(i), 4(Z)-6-([2,4,5-cis]-2-o-chlorophenyl-4-o-hydroxyphenyl-1,3-dioxan-5-yl)hexenoic acid], for which the inhibition at 0.001 µM in test [1] (A at 10^-9 M) was found to be 2.2 ± 0.8%. Also, in test [2], the “inhibition of U46619 induced hypertension” value is above 80%. The pA2 in the test with thromboxane receptor amounted to 8.02.

On to `N#Cc1ccccc1[C@H]1OC[C@@H](C/C=C\CCC(=O)O)[C@@H](c2ccccc2O)O1` (relative stereo) [(ii), 4(Z)-6-([2,4,5-cis]-2-o-cyanophenyl-4-o-hydroxyphenyl-1,3-dioxan-5-yl)hexenoic acid], for which the dose ratio in test [3] is given as above 32. Further, in test [2], the “inhibition of U46619 induced hypertension” value is on record as above 80%. Further, the pA2 in the test with thromboxane receptor was 8.09.

Consider `N#Cc1ccc([C@H]2OC[C@@H](C/C=C\CCC(=O)O)[C@@H](c3ccccc3O)O2)cc1` (relative stereo) [(iii)], for which the dose ratio in test [3] is listed as above 350. The “inhibition of U46619 induced hypertension” value in test [2] is given as above 40%. In addition, in the test with thromboxane receptor, the pA2 is reported as 7.45.

`O=C(O)CCC/C=C\C[C@@H]1CO[C@H](c2ccccc2Cl)O[C@@H]1c1ccccc1` (relative stereo) [(iv), 5(Z)-7-([2,4,5-cis]-2-o-chlorophenyl-4-phenyl-1,3-dioxan-5-yl)heptenoic acid, reference compound] yielded a pA2 in the test on thromboxane receptor of 6.22.

In the test on thromboxane receptor, `N#Cc1ccc([C@H]2OC[C@@H](C/C=C\CCCC(=O)O)[C@@H](c3ccccc3)O2)cc1` (relative stereo) [(v), reference compound] returned a pA2 of 5.65.

Consider `O=C(O)c1ccc(OCCn2ccnc2)cc1` [B], for which the inhibition at 100 µM in test [1] (B at 10^-4 M) came out at 32.2 ± 16.3%. Besides, in test [1] (B at 10^-5 M), the inhibition at 10 µM was found to be 4.5 ± 1.8%.

Take `CCCC/C=C\CCCCCCCCCCOC(C)=O` [HLA, ( --Z)-11-hexadecenyl acetate]: in the test on diamondback moths (week 1), the “Weekly catch week 1” value is reported as 0. Besides, in the test with diamondback moths (week 2), the “Weekly catch week 2” value turned out to be 1. The “Weekly catch week 3” value in the test on diamondback moths (week 3) is on record as 5. In addition, the “Weekly catch week 4” value in the test with diamondback moths (week 4) was 3.
